How the values were obtained:
Format in all cases: biochemical
CDK4 = biological target: T1, CDK4 (Homo sapiens, UniProt P11802); experiment: in vitro kinase assay, […]-ATP ([…] ATP), retinoblastoma (C-term) substrate, SDS-PAGE autoradiography
T1 construct: recombinant CDK4/Cyclin D1 (SignalChem); with Cyclin D1

CDK1 = biological target: T2, CDK1 (Homo sapiens, UniProt P06493); experiment: in vitro kinase assay, […]-ATP ([…] ATP), H1 histone substrate, SDS-PAGE autoradiography
T2 construct: recombinant CDK1/Cyclin B1 (SignalChem); with Cyclin B1
T2 sequence (P06493 whole entry): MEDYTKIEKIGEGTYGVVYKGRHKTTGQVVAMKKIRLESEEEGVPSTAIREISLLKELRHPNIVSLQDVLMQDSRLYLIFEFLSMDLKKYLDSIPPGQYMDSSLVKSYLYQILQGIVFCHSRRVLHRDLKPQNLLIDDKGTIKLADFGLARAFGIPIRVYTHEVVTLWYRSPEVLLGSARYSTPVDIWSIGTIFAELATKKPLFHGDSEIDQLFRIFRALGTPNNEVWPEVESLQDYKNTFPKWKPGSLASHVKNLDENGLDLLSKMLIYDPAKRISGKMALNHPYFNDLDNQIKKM
T2 sequence (P14635 whole entry partner): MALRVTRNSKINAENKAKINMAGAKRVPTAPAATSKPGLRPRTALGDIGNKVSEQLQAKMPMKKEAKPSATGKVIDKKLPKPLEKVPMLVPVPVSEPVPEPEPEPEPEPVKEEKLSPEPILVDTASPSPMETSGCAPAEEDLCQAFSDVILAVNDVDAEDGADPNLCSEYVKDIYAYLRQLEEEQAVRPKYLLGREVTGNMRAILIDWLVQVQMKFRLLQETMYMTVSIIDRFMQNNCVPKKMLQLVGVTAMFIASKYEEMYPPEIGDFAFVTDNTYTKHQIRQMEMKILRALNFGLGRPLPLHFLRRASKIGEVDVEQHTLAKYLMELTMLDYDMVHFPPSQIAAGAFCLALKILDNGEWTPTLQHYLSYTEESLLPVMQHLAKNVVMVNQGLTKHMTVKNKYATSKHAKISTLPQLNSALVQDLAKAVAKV

CDK2 = biological target: T3, CDK2 (Homo sapiens, UniProt P24941); experiment: as above
T3 construct: recombinant CDK2/Cyclin A2 (SignalChem); with Cyclin A2

T1 sequence (P11802 2-303): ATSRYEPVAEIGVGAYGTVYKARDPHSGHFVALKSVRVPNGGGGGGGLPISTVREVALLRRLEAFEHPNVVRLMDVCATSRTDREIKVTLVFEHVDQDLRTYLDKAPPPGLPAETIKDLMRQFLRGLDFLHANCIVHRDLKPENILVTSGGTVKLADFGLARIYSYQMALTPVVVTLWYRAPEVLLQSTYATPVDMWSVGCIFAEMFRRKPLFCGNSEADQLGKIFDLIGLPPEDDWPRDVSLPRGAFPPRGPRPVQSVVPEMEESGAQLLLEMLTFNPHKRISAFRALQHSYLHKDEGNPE
T1 sequence (P24385 whole entry partner): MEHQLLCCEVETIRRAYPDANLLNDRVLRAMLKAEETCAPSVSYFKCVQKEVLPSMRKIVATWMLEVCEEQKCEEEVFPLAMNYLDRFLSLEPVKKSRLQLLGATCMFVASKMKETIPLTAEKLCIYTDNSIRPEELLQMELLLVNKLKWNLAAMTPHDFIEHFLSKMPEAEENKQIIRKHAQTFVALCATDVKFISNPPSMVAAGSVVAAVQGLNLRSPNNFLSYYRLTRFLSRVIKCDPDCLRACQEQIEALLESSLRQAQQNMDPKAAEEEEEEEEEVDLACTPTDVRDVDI

O=C(O)c1c(O)cc(O)cc1O [2,4,6-THBA, 2,4,6-trihydroxybenzoic acid]
IC50 (CDK4): 403 ± 63 µM | IC50 (CDK1): 580 ± 57 µM | IC50 (CDK2): 262 ± 29 µM

Source: article PMC6468648, “The Flavonoid Metabolite 2,4,6-Trihydroxybenzoic Acid Is a CDK Inhibitor and an Anti-Proliferative Agent: A Potential Role in Cancer Prevention” (Cancers, 2019)
